Experimental data published in US20250041429A1, “COMPOUND HAVING BTK PROTEIN DEGRADATION ACTIVITY, AND MEDICAL USES THEREOF” (UBIX THERAPEUTICS, INC., priority 2021, published 2025).

Target: T1, BTK protein (Homo sapiens, UniProt Q06187)
T1 construct: endogenous in cells; host or cells: TMD-8 cells
Experiment: Measurement of BTK protein degradation ability in TMD-8 cells (Western blotting)
Format: cell-based
Conditions: harvested after 24 hours; for BTK degradation (%) 1 nM: compound 1 nM; for BTK degradation (%) 10 nM: compound 10 nM; for BTK degradation (%) 100 nM: compound 100 nM
Protocol: TMD-8, RAMOS, or 293T BTK MUT (C481S) cells were treated with the synthesized compounds, and then the amount of BTK protein present in the cells was measured using Western blotting detection. The protocol for the experiment conducted using TMD-8 cells was as follows:
[Culture] TMD-8 cells were resuspended in RPMI1640 MEDIUM (Hyclone, SH30027.01), 10% FBS (Hyclone, SV30207.02), and 1% Penicillin-streptomycin (Welgene, LS 202-02) media, and 1 mL of this suspension was seeded in a 12-well plate at a cell concentration of 1×10^6/mL.
[Compound treatment] The 12-well plate was treated as follows: The 10 mM stock was serially diluted 1/10 with DMSO (3 μL+27 μL DMSO), and cells were treated with compounds at final concentrations of 0.1, 1, 10 μM or 0.0001, 0.001, 0.01, 0.1 μM, and harvested after 24 hours. In the negative control group, DMSO diluted 1/10 was added to the media. (3 μL DMSO+27 μL media)
[Harvest] Each well was pipetted with a 1 mL pipette, collected in a 1.5 mL microtube, and centrifuged (500 g, 5 min, 4° C.). After removing the supernatant, it was washed with PBS and centrifuged again (500 g, 5 min, 4° C.). The supernatant was removed and the pellet was collected.
[Cell lysis and Sample preparation] lysis buffer was prepared as follows: RIPA buffer (Biosesang, RC2038-050-00), 0.5 mM PMSF (SIGMA, P7626) and 1× Protease/Phosphatase Inhibitor (Cell signaling, 5872S) were added at 60-70 μL per well and left on ice for 30 minutes. (Vortexing at 0 and 30 minutes, respectively), followed by sonication (10 seconds pulse, 30 seconds rest, 5 cycles, 70% amplification) and centrifuge (15000 g, 15 min, 4° C.). Only the supernatant was collected and transferred to a new microtube. The samples were diluted by ½ with RIPA buffer in a 96-well plate. 200 μL of the mixture A:B=50:1 of the BCA Protein Assay Kit (iNtRON, 21071) was added each, stayed at 37° C. for 30 minutes, and cooled for 10 minutes. Afterwards, absorbance was measured at 562 nm using BioTek's SYNERGY H1 microplate reader. After making a sample by quantifying the protein using the measured value, it was boiled at 70° C. for 10 minutes. The sample buffer used at this time was a mixture of NuPAGE or Bolt 4× sample buffer (Invitrogen) and each 10× sample reducing agent according to the gel to be used. RIPA buffer was used for protein dilution.
[Western blotting detection method] The same amount of sample was loaded on NuPAGE or Bolt Bis-tris 4-12% gradient gel and run (200 V, 35 minutes). It was transferred to a […] NC membrane using Trans-blot Turbo (BIO-RAD) (1.3 A constant, 25 V limit, 15 minutes). For blocking, skim milk or Intercept Blocking Buffer (LI-COR, 927-60001): 0.1% TBST=1:1 was used at room temperature for 1 hour. Anti BTK Rabbit (1:1,000 in 5% skim milk/0.2% TBST, size: 77 kDa, Cell signaling Technology) was reacted at 4° C. for 16 hours or at room temperature for 2 hours. Anti GAPDH Rabbit (1:10,000 in 5% BSA/0.2% TBST, size: 36 kDa, GENETEX) and Anti β-actin mouse (1:10,000 in 5% BSA/0.2% TBST, RT, size: 43 kDa, GENETEX) were reacted at room temperature for 1 hour or 3 hours. The samples were washed 3 times with 0.5% TBST for 5 minutes each. Secondary antibodies, Anti-Rabbit IgG (1:5,000 in 5% Skim milk/TBST, CST), IRDye® 800CW Goat anti-Rabbit IgG Secondary Antibody (1:10,000 in 5% skim/TBST, RT 45 min), IRDye® 680RD Goat anti-Mouse IgG Secondary Antibody (1:10,000 in 5% skim/TBST, RT 45 min) were added depending on each sample and reacted for 45 minutes on a rocker at room temperature. The samples were washed 5 times with 0.5% TBST for 5 minutes each and detected with LI-COR's Odyssey. At this time, BTK was detected using SuperSignal West Pico PLUS Chemiluminescent Substrate or SuperSignal West femto Maximum Sensitivity Substrate, and house-keeping genes were detected as is.

T1 sequence (Q06187 whole entry): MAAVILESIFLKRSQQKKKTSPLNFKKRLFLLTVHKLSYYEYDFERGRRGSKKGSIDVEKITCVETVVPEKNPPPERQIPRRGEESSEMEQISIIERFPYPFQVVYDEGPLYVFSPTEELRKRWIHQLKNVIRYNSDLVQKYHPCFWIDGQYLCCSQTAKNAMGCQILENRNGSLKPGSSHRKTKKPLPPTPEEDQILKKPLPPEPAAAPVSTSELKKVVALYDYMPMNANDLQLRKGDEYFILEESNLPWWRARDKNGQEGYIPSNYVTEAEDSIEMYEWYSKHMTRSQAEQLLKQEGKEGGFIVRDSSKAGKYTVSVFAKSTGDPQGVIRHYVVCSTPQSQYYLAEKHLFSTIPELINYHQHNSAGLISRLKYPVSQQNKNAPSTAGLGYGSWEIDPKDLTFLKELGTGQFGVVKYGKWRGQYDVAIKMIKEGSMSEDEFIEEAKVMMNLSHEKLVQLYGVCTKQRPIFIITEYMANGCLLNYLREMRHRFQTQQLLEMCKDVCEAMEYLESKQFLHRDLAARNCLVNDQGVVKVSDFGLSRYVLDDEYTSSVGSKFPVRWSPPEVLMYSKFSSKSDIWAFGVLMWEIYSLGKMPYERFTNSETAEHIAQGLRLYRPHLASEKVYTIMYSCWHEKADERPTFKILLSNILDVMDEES

Row | BTK degradation (%) 1 nM [%] | BTK degradation (%) 10 nM [%] | BTK degradation (%) 100 nM [%] | SMILES
1 | 38 | 91 | 99 | Cc1cc(-c2ccnc(Nc3ccc(N4CCN(CC5CN(c6cc7c(cc6F)C(=O)N(C6CCC(=O)NC6=O)C7=O)C5)CC4)cc3)n2)ccc1CNC(=O)N1CC(OC(C)C)C1 (stereo not shown) [Example 13, N-(4-(2-((4-(4-((1-(2-(2,6-dioxopiperidin-3-yl)-6-fluoro-1,3-dioxoisoindolin-5-yl)azetidin-3-yl)methyl)piperazin-1-yl)phenyl)amino)pyrimidin-4-yl)-2-methylbenzyl)-3-isopropoxyazetidine-1-carboxamide]
2 | 20 | 85.5 | 98 | Cc1cc(-c2ccnc(Nc3ccc(N4CCN(CC5(C)CN(c6ccc7c(c6)C(=O)N(C6CCC(=O)NC6=O)C7=O)C5)CC4)cc3)n2)ccc1CNC(=O)N1CC(OC(C)C)C1 (stereo not shown) [Example 14, N-(4-(2-((4-(4-((1-(2-(2,6-dioxopiperidin-3-yl)-1,3-dioxoisoindolin-5-yl)-3-methylazetidin-3-yl)methyl)piperazin-1-yl)phenyl)amino)pyrimidin-4-yl)-2-methylbenzyl)-3-isopropoxyazetidine-1-carboxamide]
3 | 56.5 | 95.5 | 99 | Cc1cc(-c2ccnc(Nc3ccc(C4CCN(CC5CCN(c6ccc7c(c6)C(=O)N(C6CCC(=O)NC6=O)C7=O)CC5)CC4)cc3)n2)ccc1CNC(=O)N1CC(OC(C)C)C1 (stereo not shown) [Example 15, N-(4-(2-((4-(1-((1-(2-(2,6-dioxopiperidin-3-yl)-1,3-dioxoisoindolin-5-yl)piperidin-4-yl)methyl)piperidin-4-yl)phenyl)amino)pyrimidin-4-yl)-2-methylbenzyl)-3-isopropoxyazetidine-1-carboxamide]
4 | 59 | 93 | 98.5 | Cc1cc(-c2ccnc(Nc3ccc(C4CCN(CC5CN(c6ccc7c(c6)C(=O)N(C6CCC(=O)NC6=O)C7=O)C5)CC4)cc3)n2)ccc1CNC(=O)N1CC(OC(C)C)C1 (stereo not shown) [Example 16, N-(4-(2-((4-(1-((1-(2-(2,6-dioxopiperidin-3-yl)-1,3-dioxoisoindolin-5-yl)azetidin-3-yl)methyl)piperidin-4-yl)phenyl)amino)pyrimidin-4-yl)-2-methylbenzyl)-3-isopropoxyazetidine-1-carboxamide]
5 | 37 | 91 | 98 | Cc1cc(-c2ccnc(Nc3ccc(N4CCN(CC5CCN(c6ccc7c(c6)C(=O)N(C6CCC(=O)NC6=O)C7=O)CC5)CC4)nc3)n2)ccc1CNC(=O)N1CC(OC(C)C)C1 (stereo not shown) [Example 17, N-(4-(2-((6-(4-((1-(2-(2,6-dioxopiperidin-3-yl)-1,3-dioxoisoindolin-5-yl)piperidin-4-yl)methyl)piperazin-1-yl)pyridin-3-yl)amino)pyrimidin-4-yl)-2-methylbenzyl)-3-isopropoxyazetidine-1-carboxamide]
6 | 46 | 92 | 98.5 | Cc1cc(-c2ccnc(Nc3ccc(N4CCN(CC5CN(c6ccc7c(c6)C(=O)N(C6CCC(=O)NC6=O)C7=O)C5)CC4)nc3)n2)ccc1CNC(=O)N1CC(OC(C)C)C1 (stereo not shown) [Example 18, N-(4-(2-((6-(4-((1-(2-(2,6-dioxopiperidin-3-yl)-1,3-dioxoisoindolin-5-yl)azetidin-3-yl)methyl)piperazin-1-yl)pyridin-3-yl)amino)pyrimidin-4-yl)-2-methylbenzyl)-3-isopropoxyazetidine-1-carboxamide]
7 | 48 | 93 | 99 | Cc1cc(-c2ccnc(Nc3ccc(C4CCN(CC5CCN(c6ccc7c(c6)C(=O)N(C6CCC(=O)NC6=O)C7=O)CC5)CC4)nc3)n2)ccc1CNC(=O)N1CC(OC(C)C)C1 (stereo not shown) [Example 19, N-(4-(2-((6-(1-((1-(2-(2,6-dioxopiperidin-3-yl)-1,3-dioxoisoindolin-5-yl)piperidin-4-yl)methyl)piperidin-4-yl)pyridin-3-yl)amino)pyrimidin-4-yl)-2-methylbenzyl)-3-isopropoxyazetidine-1-carboxamide]
8 | 49 | 92 | 98.5 | Cc1cc(-c2ccnc(Nc3ccc(C4CCN(CC5CN(c6ccc7c(c6)C(=O)N(C6CCC(=O)NC6=O)C7=O)C5)CC4)nc3)n2)ccc1CNC(=O)N1CC(OC(C)C)C1 (stereo not shown) [Example 20, N-(4-(2-((6-(1-((1-(2-(2,6-dioxopiperidin-3-yl)-1,3-dioxoisoindolin-5-yl)azetidin-3-yl)methyl)piperidin-4-yl)pyridin-3-yl)amino)pyrimidin-4-yl)-2-methylbenzyl)-3-isopropoxyazetidine-1-carboxamide]
9 | 70 | 96.5 | 99 | Cc1cc(-c2ccnc(Nc3cnn(C4CCN(CC5CCN(c6ccc7c(c6)C(=O)N(C6CCC(=O)NC6=O)C7=O)CC5)CC4)c3)n2)ccc1CNC(=O)N1CC(OC(C)C)C1 (stereo not shown) [Example 21, N-(4-(2-((1-(1-((1-(2-(2,6-dioxopiperidin-3-yl)-1,3-dioxoisoindolin-5-yl)piperidin-4-yl)methyl)piperidin-4-yl)-1H-pyrazol-4-yl)amino)pyrimidin-4-yl)-2-methylbenzyl)-3-isopropoxyazetidine-1-carboxamide]
10 | 75 | 97 | 99 | Cc1cc(-c2ccnc(Nc3cnn(C4CCN(CC5CN(c6ccc7c(c6)C(=O)N(C6CCC(=O)NC6=O)C7=O)C5)CC4)c3)n2)ccc1CNC(=O)N1CC(OC(C)C)C1 (stereo not shown) [Example 22, N-(4-(2-((1-(1-((1-(2-(2,6-dioxopiperidin-3-yl)-1,3-dioxoisoindolin-5-yl)azetidin-3-yl)methyl)piperidin-4-yl)-1H-pyrazol-4-yl)amino)pyrimidin-4-yl)-2-methylbenzyl)-3-isopropoxyazetidine-1-carboxamide]
11 | – | 72 | 91.5 | Cc1c(NC(=O)N2CC(OC(C)C)C2)cc(F)cc1-c1ccnc(Nc2ccc(N3CCN(CC4CCN(c5ccc6c(c5)C(=O)N(C5CCC(=O)NC5=O)C6=O)CC4)CC3)cc2)n1 (stereo not shown) [Example 23, N-(3-(2-((4-(4-((1-(2-(2,6-dioxopiperidin-3-yl)-1,3-dioxoisoindolin-5-yl)piperidin-4-yl)methyl)piperazin-1-yl)phenyl)amino)pyrimidin-4-yl)-5-fluoro-2-methylphenyl)-3-isopropoxyazetidine-1-carboxamide]
12 | – | 6.5 | 20 | Cc1c(NC(=O)c2cnn(C(C)(C)C)c2)cc(F)cc1-c1ccnc(Nc2ccc(N3CCN(CC4CCN(c5ccc6c(c5)C(=O)N(C5CCC(=O)NC5=O)C6=O)CC4)CC3)cc2)n1 (stereo not shown) [Example 24, 1-(tert-butyl)-N-(3-(2-((4-(4-((1-(2-(2,6-dioxopiperidin-3-yl)-1,3-dioxoisoindolin-5-yl)piperidin-4-yl)methyl)piperazin-1-yl)phenyl)amino)pyrimidin-4-yl)-5-fluoro-2-methylphenyl)-1H-pyrazole-4-carboxamide]
